One data set relates to L929 cells. Briefly: L929 cell necroptosis assay (TNFa + zVAD, CellTiter-Glo recovery). In kind it is cell-based, murine. The conditions noted are these: Mus musculus, L929, 18 h, TNFa 2 ng/mL + zVAD-fmk, read-out: L929-CTG-recovery, L929, TNFa + zVAD (IC50). In short, it runs like this: (§1)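 Human U937 (50K/well, 60 uM zVAD-fmk medium, plated same day) or murine L929 (10K/well, plated 18 h, then 40 uM zVAD-fmk medium) were grown in RPMI with 10% FBS. Both were pretreated with compound for 1 h at 37 °C before TNFa at 2 ng/mL final. Viability was read by CellTiter-Glo luminescence after 18 h.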
For orientation: ATP-based viability assays read luminescence as a measure of living cells.

A further data set concerns the target T1, RIPK1 (Homo sapiens, UniProt Q13546).
T1 sequence (Q13546 1-671): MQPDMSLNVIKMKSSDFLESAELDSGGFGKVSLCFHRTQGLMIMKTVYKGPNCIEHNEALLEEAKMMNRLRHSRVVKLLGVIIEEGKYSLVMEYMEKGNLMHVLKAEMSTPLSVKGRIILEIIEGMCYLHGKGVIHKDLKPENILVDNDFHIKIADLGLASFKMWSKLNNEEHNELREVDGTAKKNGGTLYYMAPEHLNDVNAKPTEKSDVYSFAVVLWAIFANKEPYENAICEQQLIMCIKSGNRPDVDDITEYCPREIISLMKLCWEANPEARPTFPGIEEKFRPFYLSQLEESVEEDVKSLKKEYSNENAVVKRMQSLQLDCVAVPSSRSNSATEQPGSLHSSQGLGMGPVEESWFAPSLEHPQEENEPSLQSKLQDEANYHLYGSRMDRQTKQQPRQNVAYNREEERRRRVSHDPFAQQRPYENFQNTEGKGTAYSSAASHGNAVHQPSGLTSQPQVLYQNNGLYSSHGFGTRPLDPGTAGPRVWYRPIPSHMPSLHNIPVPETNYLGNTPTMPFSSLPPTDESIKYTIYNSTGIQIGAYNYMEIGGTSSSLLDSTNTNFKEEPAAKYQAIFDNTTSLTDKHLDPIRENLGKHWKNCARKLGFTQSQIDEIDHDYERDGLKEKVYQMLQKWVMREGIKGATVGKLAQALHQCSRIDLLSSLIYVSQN
Put plainly: RIPK1 ADP-Glo biochemical kinase assay. The conditions noted are these: read-out: RIPK1 ADP-Glo Kinase (IC50). A digest of the protocol: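 RIPK1 at 31 ng/well in Tris pH 7.4 buffer with MgCl2, BSA, DTT and MnCl2, reacted with compounds (duplicate) for 30 min at 30 °C. ADP formed detected by ADP-Glo: 40 min stop/depletion, then 30 min detection reagent at room temperature; luminescence read.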

Another data set has as its system U937 cells. Put plainly: U937 cell necroptosis assay (TNFa + zVAD, CellTiter-Glo recovery). The conditions noted are these: Homo sapiens, U-937, 18 h, TNFa 2 ng/mL + zVAD-fmk, read-out: U937 Zvad TNF CTG Recovery, U937, TNFa + zVAD (IC50). In kind it is cell-based. In short, it runs like this: as §1
Data set [1] can be described thus: Brain penetration: free brain/plasma ratio in in vivo pharmacokinetic studies. To be noted: brain and plasma (unbound); in vivo pharmacokinetic studies in rodents; read-out: free brain/plasma ratio (Bu/Pu). The procedure: Female C57BL/6 mice are randomly grouped and weighed on Day −1. On the day of the study (Day 0), mice are administered vehicle or test article by oral gavage. Fifteen minutes after oral administration of test agents, each mouse is administered an intraperitoneal (IP) injection of solution containing recombinant human tumor necrosis factor alpha (TNF-a, 25.0 μg) and zVAD-FMK (200 μg). Body temperature is measured at 0 hours (before IP injections) and every hour via rectal probe temperature measuring device. Three (3) hours after IP injections of TNF-a and zVAD/FMK, mice are euthanized by CO2 asphyxiation and blood is collected via cardiac puncture. Serum and plasma are harvested for determination of cytokine and compound levels, respectively. Separate groups of mice (satellite mice) are included for the determination of compound levels in plasma at the time of administration of TNFa/zVAD-FMK. […] Brain penetration may be assessed by evaluating free brain/plasma ratio (Bu/Pu) as measured in vivo pharmacokinetic studies in rodents. […] In this method, the passive membrane permeability (Papp) and the P-gp (P-glycoprotein) substrate efflux potential are determined using a MDCKII-MDR1 cell line as an in vitro model of the effective permeability of a compound through the BBB.

The structures appear in SMILES notation.

Usually IC50 stands for the concentration needed to halve the response being measured.

Turning to `Cc1cccc(Cc2cnn(C(=O)N[C@H]3COc4ccc(C#CC5CCOCC5)cc4N(C)C3=O)c2)n1` [I-104, (S)—N-(5-Methyl-4-oxo-7-((tetrahydro-2H-pyran-4-yl)ethynyl)-2,3,4,5-tetrahydrobenzo[b][1,4]oxazepin-3-yl)-4-((6-methylpyridin-2-yl)methyl)-1H-pyrazole-1-carboxamide], the half-maximal inhibitory concentration (IC50) in the data set on L929 cells was found to be 190 nM; on RIPK1, 16.4 nM; with U937 cells, 7.3 nM. Further, the Kp,uu (unbound brain/plasma ratio) in data set [1] stood at 1.7.

`Cc1cccc(Cc2cnn(C(=O)N[C@H]3CCc4ccc(C#CC5(O)COC5)cc4N(C)C3=O)c2)n1` [I-120, (S)—N-(8-((3-Hydroxyoxetan-3-yl)ethynyl)-1-methyl-2-oxo-2,3,4,5-tetrahydro-1H-benzo[b]azepin-3-yl)-4-((6-methylpyridin-2-yl)methyl)-1H-pyrazole-1-carboxamide]: the figures for the IC50 with L929 cells, on RIPK1 and in the data set with U937 cells were 233 nM, 17.2 nM and 9.5 nM, respectively. In data set [1], the Kp,uu (unbound brain/plasma ratio) came out at 11.

For the compound `CN1C(=O)[C@@H](NC(=O)n2cc(Cc3cccnc3F)cn2)COc2ccc(Br)cc21` [I-42, (S)—N-(7-Bromo-5-methyl-4-oxo-2,3,4,5-tetrahydrobenzo[b][1,4]oxazepin-3-yl)-4-((2-fluoropyridin-3-yl)methyl)-1H-pyrazole-1-carboxamide], the results for the half-inhibitory concentration (IC50) in the data set on L929 cells, on RIPK1 and in the data set on U937 cells were 28400 nM, 18.2 nM and 58.6 nM, respectively.

As to `CN1C(=O)[C@@H](NC(=O)c2cc(Cn3cccn3)ccn2)COc2ccc(C#CC(C)(C)O)cc21` [I-71, (S)-4-((1H-pyrazol-1-yl)methyl)-N-(7-(3-hydroxy-3-methylbut-1-yn-1-yl)-5-methyl-4-oxo-2,3,4,5-tetrahydrobenzo[b][1,4]oxazepin-3-yl)picolinamide], the figures for the IC50 in the data set with L929 cells, at RIPK1 and in the data set with U937 cells were 2150 nM, 87.8 nM and 549 nM, respectively.

As to `CCc1nc(Cc2ccnc(C(=O)N[C@H]3COc4ccc(C#CC5(O)COC5)cc4N(C)C3=O)c2)cs1` [I-99, (S)-4-((2-ethylthiazol-4-yl)methyl)-N-(7-((3-hydroxyoxetan-3-yl)ethynyl)-5-methyl-4-oxo-2,3,4,5-tetrahydrobenzo[b][1,4]oxazepin-3-yl)picolinamide], the IC50 with L929 cells worked out at 225 nM; on RIPK1, 26.7 nM; with U937 cells it was 26.8 nM.

Regarding `CN1C(=O)[C@@H](NC(=O)c2cc(Cc3cccc(C#N)n3)ccn2)COc2ccc(C#CC3(O)COC3)cc21` [I-94, (S)-4-((6-cyanopyridin-2-yl)methyl)-N-(7-((3-hydroxyoxetan-3-yl)ethynyl)-5-methyl-4-oxo-2,3,4,5-tetrahydrobenzo[b][1,4]oxazepin-3-yl)picolinamide], the values for the IC50 in the data set on L929 cells, at RIPK1 and with U937 cells were 3790 nM, 18 nM and 23.7 nM, respectively.

`CN1C(=O)[C@@H](NC(=O)c2cc(Oc3cccnc3F)ccn2)COc2ccc(C#CC(C)(C)O)cc21` [I-54, (S)-4-((2-fluoropyridin-3-yl)oxy)-N-(7-(3-hydroxy-3-methylbut-1-yn-1-yl)-5-methyl-4-oxo-2,3,4,5-tetrahydrobenzo[b][1,4]oxazepin-3-yl)picolinamide]: the figures for the 50% inhibitory concentration (IC50) in the data set on L929 cells, on RIPK1 and with U937 cells were 573 nM, 16.8 nM and 7.1 nM, respectively.

The record behind these values is patent publication US12156880B2, “Heterocyclic RIP1 kinase inhibitors” (Rigel Pharmaceuticals, Inc., priority 2021, dated 2024).
